The source made the active and inactive calls. Cut-off read from the data, not from the text of the source: actives have a measured IC50 and inactives only a lower limit.

The assay deals with Envelope glycoprotein gp160 (Human immunodeficiency virus 1, UniProt Q6QLK5). The assay is described as follows: inhibitors of HIV fusion peptide binding, primary screen, biochemical, uHTS, fluorescence dequenching (AID 1986).
Sequence of Envelope glycoprotein gp160 (Q6QLK5 whole entry, the tested form may be a part): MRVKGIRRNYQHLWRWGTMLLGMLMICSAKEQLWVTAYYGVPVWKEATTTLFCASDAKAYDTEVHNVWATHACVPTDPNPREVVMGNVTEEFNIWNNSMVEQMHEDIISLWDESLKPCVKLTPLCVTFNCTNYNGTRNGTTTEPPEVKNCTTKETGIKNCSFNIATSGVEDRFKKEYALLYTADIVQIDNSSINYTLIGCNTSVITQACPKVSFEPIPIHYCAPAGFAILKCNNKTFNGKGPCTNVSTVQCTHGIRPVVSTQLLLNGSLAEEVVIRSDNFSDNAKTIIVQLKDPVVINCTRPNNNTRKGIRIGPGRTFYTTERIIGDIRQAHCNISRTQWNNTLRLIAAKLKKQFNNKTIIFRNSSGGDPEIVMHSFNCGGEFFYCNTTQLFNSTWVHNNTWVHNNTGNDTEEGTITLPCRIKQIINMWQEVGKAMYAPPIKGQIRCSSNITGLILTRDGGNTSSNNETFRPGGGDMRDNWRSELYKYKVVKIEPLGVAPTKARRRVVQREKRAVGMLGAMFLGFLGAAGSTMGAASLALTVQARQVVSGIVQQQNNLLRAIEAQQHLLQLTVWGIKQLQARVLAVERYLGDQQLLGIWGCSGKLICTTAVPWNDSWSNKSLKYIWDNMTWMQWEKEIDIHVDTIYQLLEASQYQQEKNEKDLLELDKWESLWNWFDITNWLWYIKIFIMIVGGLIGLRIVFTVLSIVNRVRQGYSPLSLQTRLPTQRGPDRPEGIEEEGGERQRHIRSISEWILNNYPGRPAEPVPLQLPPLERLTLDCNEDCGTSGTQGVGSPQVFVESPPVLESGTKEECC

Turning to `O=C(O)c1ccc(-c2ccc(/C=c3/sc4nc5ccccc5n4c3=O)o2)cc1Cl`, the half-maximal inhibitory concentration (IC50) (in general, the concentration that inhibits the measured activity by half) was 13.7 µM (active).

For the origin of these results see ChEMBL document CHEMBL1201862, “PubChem BioAssay data set” (2004).
